Literature values as cited in US6004969A (National Science Council, priority 1997, dated 1999).

Legend:
[1] = oral administration; words
animal paw swelling = conditions: topical use; words

SMILES	first pass effect [1]	gastrointestinal absorption [1]	inhibition of animal paw swelling (animal paw swelling)
CO[C@]12CC[C@@]3(C[C@@H]1[C@](C)(O)C(C)(C)C)[C@H]1Cc4ccc(O)c5c4[C@@]3(CCN1CC1CC1)[C@H]2O5 [Buprenorphine, 21-cyclo-propylmethyl-7-α-[(S)-1-hydroxy-1,2,2-trimethylpropyl]-6,14-endoethano-6,7,8,14-tetrahydroripavine]	high first pass effect	poor gastrointestinal absorption	
CC1(C)[C@@H](O)CC[C@]2(C)[C@H]3C(=O)C=C4[C@@H]5C[C@@](C)(C(=O)O)CC[C@]5(C)CC[C@@]4(C)[C@]3(C)CC[C@@H]12 [glycyrrhetinic acid]			can inhibit animal paw swelling
CC1(C)[C@@H](O[C@H]2O[C@H](C(=O)O)[C@@H](O)[C@H](O)[C@H]2O[C@@H]2O[C@H](C(=O)O)[C@@H](O)[C@H](O)[C@H]2O)CC[C@]2(C)[C@H]3C(=O)C=C4[C@@H]5C[C@@](C)(C(=O)O)CC[C@]5(C)CC[C@@]4(C)[C@]3(C)CC[C@@H]12 [glycyrrhizic acid]			can inhibit animal paw swelling
